# According to article PMC1790865, “Plant Carbohydrate Scavenging through TonB-Dependent Receptors: A Feature Shared by Phytopathogenic and Aquatic Bacteria” (PLoS ONE, 2007):
# Legend:
# [1] = target: T1, SuxA (XCC3358 TonB-dependent receptor) (Xanthomonas campestris, UniProt Q8P5I3); assay: […]sucrose concentration-dependent uptake in whole wild-type cells (Scatchard, high-affinity phase); uptake lost in suxA deletion mutant and restored by complementation; format: cell-based
# T1 construct: gene fyuA
# [2] = target: T2, SuxC (XCC3357 inner membrane sugar transporter) (Xanthomonas campestris, UniProt Q8P5I4); assay: […]sucrose concentration-dependent uptake in whole wild-type cells (Scatchard, slow phase); uptake lost in suxC insertion mutant; format: cell-based
# T2 construct: gene suc1
# T2 sequence (Q8P5I4 entry or part of it): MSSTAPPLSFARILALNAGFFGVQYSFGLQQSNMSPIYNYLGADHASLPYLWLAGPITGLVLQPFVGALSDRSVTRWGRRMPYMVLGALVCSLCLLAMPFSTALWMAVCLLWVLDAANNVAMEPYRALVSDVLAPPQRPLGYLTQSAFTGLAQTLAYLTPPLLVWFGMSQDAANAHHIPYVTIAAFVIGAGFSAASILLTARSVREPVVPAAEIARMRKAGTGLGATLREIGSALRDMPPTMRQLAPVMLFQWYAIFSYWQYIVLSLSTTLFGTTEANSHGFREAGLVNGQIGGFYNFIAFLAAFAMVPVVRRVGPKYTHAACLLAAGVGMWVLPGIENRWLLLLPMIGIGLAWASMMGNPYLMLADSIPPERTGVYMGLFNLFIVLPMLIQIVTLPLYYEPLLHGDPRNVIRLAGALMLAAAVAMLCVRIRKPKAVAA
# T1 sequence (Q8P5I3 entry or part of it): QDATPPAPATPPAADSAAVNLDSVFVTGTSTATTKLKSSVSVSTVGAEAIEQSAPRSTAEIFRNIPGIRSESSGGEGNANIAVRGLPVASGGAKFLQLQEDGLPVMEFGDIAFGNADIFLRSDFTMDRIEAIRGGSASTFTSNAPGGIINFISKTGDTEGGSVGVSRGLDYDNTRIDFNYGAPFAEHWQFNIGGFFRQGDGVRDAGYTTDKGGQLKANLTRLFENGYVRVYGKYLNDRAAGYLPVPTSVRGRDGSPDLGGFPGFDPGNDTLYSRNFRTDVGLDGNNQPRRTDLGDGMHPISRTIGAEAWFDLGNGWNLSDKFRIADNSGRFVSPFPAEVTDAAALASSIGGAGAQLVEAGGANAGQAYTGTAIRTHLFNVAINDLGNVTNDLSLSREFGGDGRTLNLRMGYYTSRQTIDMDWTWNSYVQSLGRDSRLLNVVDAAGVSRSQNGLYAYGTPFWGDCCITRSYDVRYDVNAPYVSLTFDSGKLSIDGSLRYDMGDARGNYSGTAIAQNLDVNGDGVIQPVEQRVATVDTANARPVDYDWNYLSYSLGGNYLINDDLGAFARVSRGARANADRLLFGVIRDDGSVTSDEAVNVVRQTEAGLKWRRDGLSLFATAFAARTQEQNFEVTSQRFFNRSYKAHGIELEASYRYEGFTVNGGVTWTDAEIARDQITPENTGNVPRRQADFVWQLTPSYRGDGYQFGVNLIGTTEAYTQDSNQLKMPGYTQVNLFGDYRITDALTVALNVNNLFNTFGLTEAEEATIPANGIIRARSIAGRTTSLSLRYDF
smiles,measurement,setting,value
OC[C@H]1O[C@@](CO)(O[C@H]2O[C@H](CO)[C@@H](O)[C@H](O)[C@H]2O)[C@@H](O)[C@@H]1O [sucrose],Kd,[1],33 nM
same,Kd,[2],590 nM
